The record followed here is PubChem BioAssay AID2060338 (Molecular Pharmacology Branch, DTP, NCI, 2025).

For this test, the system named is 556581-035-R-J1-PDC spheroids with HUVEC/MSC, viability. The experiment in a line: Anticancer human tumor 556581-035-R-J1-PDC patient-derived ovarian carcinoma cell line growth inhibition [IpAb]. The note with it: for viability, T/C: stronger effect = lower value. The method, boiled down:
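Combinations with ipatasertib or abemaciclib were tested on tumour spheroids holding HUVEC (25%) and MSC (15%) alongside 60% malignant cells. Top concentration was at or near clinical Cmax (10 microM if undefined), descending in half-log steps.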

The mark [1] stands for this setting: curve of first compound, second compound 0.01 µM.
[2] abbreviates: curve of first compound, second compound 0.0316 µM.
The mark [3] stands for this setting: curve of first compound, second compound 0.1 µM.
The mark [4] stands for this setting: curve of first compound, second compound 0.316 µM.
[5] abbreviates: curve of first compound, second compound 1 µM.
[6] abbreviates: second compound 0.01 µM, first compound 0.0316 µM.
[7] abbreviates: second compound 0.01 µM, first compound 0.1 µM.
Setting [8] is: second compound 0.0316 µM, first compound 0.0316 µM.
Setting [9] is: second compound 0.0316 µM, first compound 0.1 µM.
Setting [10] is: second compound 0.1 µM, first compound 0.0316 µM.
Where [11] appears, read: second compound 0.1 µM, first compound 0.1 µM.
Where [12] appears, read: second compound 0.1 µM, first compound 0.316 µM.
[13] abbreviates: second compound 0.1 µM, first compound 1 µM.
[14] abbreviates: second compound 0.1 µM, first compound 3.16 µM.
[15] abbreviates: second compound 0.1 µM, first compound 10 µM.
Setting [16] is: second compound 0.316 µM, first compound 0.0316 µM.
Where [17] appears, read: second compound 0.316 µM, first compound 0.1 µM.
[18] abbreviates: second compound 0.316 µM, first compound 0.316 µM.
Setting [19] is: second compound 0.316 µM, first compound 1 µM.
[20] abbreviates: second compound 0.316 µM, first compound 3.16 µM.
[21] abbreviates: second compound 0.316 µM, first compound 10 µM.
Setting [22] is: second compound 1 µM, first compound 0.0316 µM.
Where [23] appears, read: second compound 1 µM, first compound 0.1 µM.
The mark [24] stands for this setting: second compound 1 µM, first compound 0.316 µM.
Where [25] appears, read: second compound 1 µM, first compound 1 µM.
Setting [26] is: second compound 1 µM, first compound 3.16 µM.
The mark [27] stands for this setting: second compound 1 µM, first compound 10 µM.

Where “and” joins values, the source holds several entries; their conditions need not be identical. Identical values can stand only once.
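Further: spheroids exposed to compounds for 7 days before readout.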

What is called IC50 is the concentration at which inhibition is half-maximal. The term viability, T/C denotes the ratio of treated to control. On to `CC1(C)CCC(CN2CCN(c3ccc(C(=O)NS(=O)(=O)c4ccc(NCC5CCOCC5)c([N+](=O)[O-])c4)c(Oc4cnc5[nH]ccc5c4)c3)CC2)=C(c2ccc(Cl)cc2)C1` + CCN1CCN(Cc2ccc(Nc3ncc(F)c(-c4cc(F)c5nc(C)n(C(C)C)c5c4)n3)nc2)CC1, for which the 50% inhibitory concentration (IC50) reads like this: under setting [1], 8.32 µM; under setting [2], 6.5 µM; under setting [3], 6.72 µM; under setting [4], 5.59 µM; under setting [5], 2.06 µM. For the same molecule, the viability, T/C was 92.6% under setting [6]; 118% under setting [7]; 112% (second compound 0.01 µM, first compound 0.316 µM); 108% (second compound 0.01 µM, first compound 1 µM); 102% (second compound 0.01 µM, first compound 3.16 µM); 40.2% (second compound 0.01 µM, first compound 10 µM). Moreover, the viability, T/C was 106% under setting [8]; 111% under setting [9]; 108% (second compound 0.0316 µM, first compound 0.316 µM); 98% (second compound 0.0316 µM, first compound 1 µM); 95.5% (second compound 0.0316 µM, first compound 3.16 µM); 23.7% (second compound 0.0316 µM, first compound 10 µM). Besides, the viability, T/C is, setting by setting: under setting [10], 122%; under setting [11], 104%; under setting [12], 107%; under setting [13], 94.4%; under setting [14], 91.6%; under setting [15], 29.9%. The viability, T/C reads like this: under setting [16], 94%; under setting [17], 95.6%; under setting [18], 92.2%; under setting [19], 94.4%; under setting [20], 87.6%; under setting [21], 11.8%. Further, the viability, T/C is, setting by setting: under setting [22], 67%; under setting [23], 58.1%; under setting [24], 68.6%; under setting [25], 56.8%; under setting [26], 45.1%; under setting [27], 6.15%.
On to `CC(=O)c1c(C)c2cnc(Nc3ccc(N4CCNCC4)cn3)nc2n(C2CCCC2)c1=O`, for which the viability, T/C is, setting by setting: (compound 0.000949 µM) 92.6% and 100%; (compound 0.003 µM) 125% and 99.8%; (compound 0.00949 µM) 91.4% and 106%; (compound 0.03 µM) 106% and 104%; (compound 0.0949 µM) 94.1% and 108%; (compound 0.3 µM) 99.7% and 95.6%. In addition, where the note is “curve of compound”, the IC50 is greater than 0.3 µM.
With `Cn1ncc(Cl)c1-c1cc(C(=O)NC(CN)Cc2cccc(F)c2)sc1Cl` (stereo unspecified) + CC(C)NCC(C(=O)N1CCN(c2ncnc3c2C(C)CC3O)CC1)c1ccc(Cl)cc1, the half-inhibitory concentration (IC50) is 1.86 µM under setting [3]; 2.39 µM under setting [4]; 1.9 µM under setting [5]; 1.31 µM (curve of first compound, second compound 3.16 µM); 1.19 µM (curve of first compound, second compound 10 µM). Besides, the viability, T/C runs as follows: under setting [10], 84%; under setting [11], 81.2%; under setting [12], 68.5%; under setting [13], 63.4%; under setting [14], 40.9%; under setting [15], 0.2%. The viability, T/C by setting is: under setting [16], 37.8%; under setting [17], 79.6%; under setting [18], 67.2%; under setting [19], 56.8%; under setting [20], 47.3%; under setting [21], 0.21%. Also, the viability, T/C reads like this: under setting [22], 70.2%; under setting [23], 67.2%; under setting [24], 67.6%; under setting [25], 55.3%; under setting [26], 45.1%; under setting [27], 0.18%. For the same molecule, the viability, T/C is 55.3% (second compound 3.16 µM, first compound 0.0316 µM); 74.6% (second compound 3.16 µM, first compound 0.1 µM); 54.4% (second compound 3.16 µM, first compound 0.316 µM); 54.2% (second compound 3.16 µM, first compound 1 µM); 37.8% (second compound 3.16 µM, first compound 3.16 µM); 1.42% (second compound 3.16 µM, first compound 10 µM). In addition, the viability, T/C is 51.8% (second compound 10 µM, first compound 0.0316 µM); 55.7% (second compound 10 µM, first compound 0.1 µM); 51.5% (second compound 10 µM, first compound 0.316 µM); 53.4% (second compound 10 µM, first compound 1 µM); 32.5% (second compound 10 µM, first compound 3.16 µM); 4.77% (second compound 10 µM, first compound 10 µM).
Regarding `Cn1ncnc1[C@H]1c2n[nH]c(=O)c3cc(F)cc(c23)N[C@@H]1c1ccc(F)cc1`, the viability, T/C by setting is: (compound 0.000316 µM) 120% and 97.9%; (compound 0.001 µM) 106% and 94.6%; (compound 0.00316 µM) 91.1% and 85.3%; (compound 0.01 µM) 76.8% and 86.8%; (compound 0.0316 µM) 73.8% and 78.4%; (compound 0.1 µM) 68% and 62.8%. For the same molecule, the 50% inhibitory concentration (IC50) (curve of compound) is greater than 0.1 µM.
On to `Cn1ncnc1[C@H]1c2n[nH]c(=O)c3cc(F)cc(c23)N[C@@H]1c1ccc(F)cc1` + CCN1CCN(Cc2ccc(Nc3ncc(F)c(-c4cc(F)c5nc(C)n(C(C)C)c5c4)n3)nc2)CC1, for which the IC50 is greater than 0.1 µM under setting [1]; greater than 0.1 µM under setting [2]; greater than 0.1 µM under setting [3]; 0.0838 µM under setting [4]; 0.00165 µM under setting [5]. The viability, T/C is 80.6% (second compound 0.01 µM, first compound 0.000316 µM); 107% (second compound 0.01 µM, first compound 0.001 µM); 80.9% (second compound 0.01 µM, first compound 0.00316 µM); 83.6% (second compound 0.01 µM, first compound 0.01 µM); 84.1% under setting [6]; 63.7% under setting [7]. The viability, T/C runs as follows: (second compound 0.0316 µM, first compound 0.000316 µM) 84.9%; (second compound 0.0316 µM, first compound 0.001 µM) 82.8%; (second compound 0.0316 µM, first compound 0.00316 µM) 90.6%; (second compound 0.0316 µM, first compound 0.01 µM) 83.2%; under setting [8], 61.3%; under setting [9], 60%. Moreover, the viability, T/C (second compound 0.1 µM, first compound 0.000316 µM) was 67.7%; the viability, T/C (second compound 0.1 µM, first compound 0.001 µM) was 81.3%; the viability, T/C (second compound 0.1 µM, first compound 0.00316 µM) was 84.9%; the viability, T/C (second compound 0.1 µM, first compound 0.01 µM) was 83.2%; the viability, T/C under setting [10] is 63.1%; the viability, T/C under setting [11] was 55.2%. In addition, the viability, T/C (second compound 0.316 µM, first compound 0.000316 µM) was 70.8%; the viability, T/C (second compound 0.316 µM, first compound 0.001 µM) was 77.8%; the viability, T/C (second compound 0.316 µM, first compound 0.00316 µM) is 69.8%; the viability, T/C (second compound 0.316 µM, first compound 0.01 µM) is 79.1%; the viability, T/C under setting [16] is 59.2%; the viability, T/C under setting [17] was 48.3%. The viability, T/C runs as follows: (second compound 1 µM, first compound 0.000316 µM) 51.5%; (second compound 1 µM, first compound 0.001 µM) 59.2%; (second compound 1 µM, first compound 0.00316 µM) 43.1%; (second compound 1 µM, first compound 0.01 µM) 37.3%; under setting [22], 41.9%; under setting [23], 44.4%.
With `Cc1nc(NC(=O)N2CCCC2C(N)=O)sc1-c1ccnc(C(C)(C)C(F)(F)F)c1` (stereo unspecified), the viability, T/C reads like this: (compound 0.0316 µM) 84.4% and 80.2%; (compound 0.1 µM) 73.3% and 72.6%; (compound 0.316 µM) 58.8% and 56.2%; (compound 1 µM) 40.9% and 42%; (compound 3.16 µM) 28.5% and 31.8%; (compound 10 µM) 9.2% and 11.3%. The 50% inhibitory concentration (IC50) (curve of compound) was 0.594 µM and 0.608 µM.
